Consider 29 compounds from article PMC5681660, “Reduced hepatitis B and D viral entry using clinically applied drugs as novel inhibitors of the bile acid transporter NTCP” (Scientific Reports, 2017).

For assay [1], the target named is T1, human NTCP (Homo sapiens, UniProt Q14973).
T1 sequence (Q14973 1-349): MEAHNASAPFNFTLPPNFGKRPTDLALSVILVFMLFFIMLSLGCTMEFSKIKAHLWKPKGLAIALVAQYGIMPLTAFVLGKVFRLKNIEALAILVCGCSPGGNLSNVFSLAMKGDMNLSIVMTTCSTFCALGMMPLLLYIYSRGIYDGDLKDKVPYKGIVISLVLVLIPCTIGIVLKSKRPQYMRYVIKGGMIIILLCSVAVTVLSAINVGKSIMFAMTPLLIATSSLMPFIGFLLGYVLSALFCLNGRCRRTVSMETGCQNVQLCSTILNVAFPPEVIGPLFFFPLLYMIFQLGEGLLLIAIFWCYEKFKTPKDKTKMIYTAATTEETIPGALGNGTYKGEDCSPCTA
Nature of the assay: Screening taurocholate uptake assay (96-well, [14C]taurocholate, 10 µM drug).

The target in assay [2] is T1, human NTCP. Nature of the assay: Screening fluorescent competitive Myrcludex B-FITC binding assay (96-well, 10 µM drug).
The mark [3] stands for this setting: Prestwick library screen, taurocholate uptake, 10 µM drug.
Where [4] appears, read: ranking score beside the functional and binding assay B-scores of the screen.
Setting [5] is: Prestwick library screen, Myrcludex B-FITC binding, 10 µM drug.
[6] abbreviates: combined ranking from functional and binding screening assays.
The mark [7] stands for this setting: screen, 10 µM drug, taurocholate uptake.
Setting [8] is: screen, 10 µM drug, Myrcludex B-FITC binding.
[9] abbreviates: Prestwick library screen, 10 µM drug, B-score of taurocholate uptake.
The mark [10] stands for this setting: combined ranking from functional and binding assay B-scores.
Where [11] appears, read: Prestwick library screen, 10 µM drug, B-score of Myrcludex B-FITC binding.

Counter-ions that a name gives are not always drawn. Like-named read-outs stand apart in the source and are kept apart here.

`CN(C)CCC=C1c2ccccc2C=Cc2ccccc21` [Cyclobenzaprine hydrochloride]: the B-score functional assay in assay [1] (setting [3]) is recorded as -0.009. Moreover, the Ranking score in assay [1] (setting [4]) is 718.919. The compound further registered a B-score binding assay in assay [2] (setting [5]) of 0.264.

Consider `Nc1nc(F)nc2c1ncn2[C@@H]1O[C@H](CO)[C@@H](O)[C@@H]1O` [Fludarabine], for which the B-score functional assay in assay [1] (setting [3]) is on record as 1.199. The compound also showed a Ranking score in assay [1] (setting [4]) of 822.35. Also, the B-score binding assay in assay [2] (setting [5]) is on record as -0.02.

As to `CC(=O)S[C@@H]1CC2=CC(=O)CC[C@]2(C)[C@H]2CC[C@@]3(C)[C@@H](CC[C@@]34CCC(=O)O4)[C@H]12` [Spironolactone], in assay [1] (setting [3]), the B-score functional assay was -0.089. Also, the Ranking score in assay [1] (setting [4]) turned out to be 751.977. In assay [2] (setting [5]), this compound showed a B-score binding assay of 0.972.

Consider `C[C@]12C[C@H]3S[C@H]3C[C@@H]1CC[C@@H]1[C@@H]2CC[C@]2(C)[C@@H](O)CC[C@@H]12` [Epitiostanol], for which, in assay [1], the B-score functional assay is given as 0.926 and the Ranking score was found to be 1032.88. The compound further registered a B-score binding assay in assay [2] of 0.911.

In the case of `CC(=O)OCC(=O)[C@@]12N=C(C)O[C@@H]1C[C@H]1[C@@H]3CCC4=CC(=O)C=C[C@]4(C)[C@H]3[C@@H](O)C[C@@]12C` [Deflazacort], in assay [1] (setting [6]), the Ranking score is 446.866. The compound also registered a B-score functional assay in assay [1] (setting [7]) of 0.131. In addition, in assay [2] (setting [8]), the B-score binding assay was -0.898.

`Nc1nc2c(ncn2COCCO)c(=O)[nH]1` [Acyclovir] returned a B-score functional assay in assay [1] (setting [3]) of 0.026. The compound also registered a Ranking score in assay [1] (setting [4]) of 658.696. In addition, the B-score binding assay in assay [2] (setting [5]) amounted to 0.

`CCC(=O)O[C@]1(C(=O)SCF)[C@H](C)C[C@H]2[C@@H]3C[C@H](F)C4=CC(=O)C=C[C@]4(C)[C@@]3(F)[C@@H](O)C[C@@]21C` [Fluticasone propionate] registered a B-score functional assay in assay [1] (setting [3]) of 0.021. Also, the Ranking score in assay [1] (setting [4]) was found to be 830.535. The same compound showed a B-score binding assay in assay [2] (setting [5]) of 0.947.

For the compound `COc1ccc(C(=O)c2ccccc2O)c(O)c1` [Dioxybenzone], the Ranking score in assay [1] (setting [6]) is reported as 401.91. Moreover, in assay [1] (setting [7]), the B-score functional assay turned out to be 0.002. Besides, in assay [2] (setting [8]), the B-score binding assay is given as -0.95.

With `CN(c1nccc(=O)[nH]1)C1CCN(c2nc3ccccc3n2Cc2ccc(F)cc2)CC1` [Mizolastine], in assay [1] (setting [9]), the B-score functional assay came to 0.906. In addition, the Ranking score in assay [1] (setting [10]) was 877.518. The B-score binding assay in assay [2] (setting [11]) is 0.089.

In the case of `CN(C)[C@@H]1C(O)=C(C(N)=O)C(=O)[C@@]2(O)C(O)=C3C(=O)c4c(O)ccc(Cl)c4[C@@H](O)[C@H]3C[C@@H]12` [Demeclocycline hydrochloride], the B-score functional assay in assay [1] (setting [3]) is reported as 0.083. The Ranking score in assay [1] (setting [4]) was determined as 738.496. This compound also displayed a B-score binding assay in assay [2] (setting [5]) of 0.096.

On to `O=C(O)c1cn(-c2ccc(F)cc2)c2cc(N3CCNCC3)c(F)cc2c1=O` [Sarafloxacin], for which the Ranking score in assay [1] (setting [6]) is given as 305.771. Besides, the B-score functional assay in assay [1] (setting [7]) is listed as -0.49. The B-score binding assay in assay [2] (setting [8]) is recorded as -0.967.

On to `CC1(C)OC(=O)NC1=O` [Dimethadione], for which, in assay [1] (setting [6]), the Ranking score is 328.253. The compound also came in with a B-score functional assay in assay [1] (setting [7]) of 0.349. Moreover, the B-score binding assay in assay [2] (setting [8]) is reported as -1.829.

As to `CCC(=O)[C@@]1(C)[C@H](C)C[C@H]2[C@@H]3CCC4=CC(=O)C=C[C@]4(C)[C@H]3[C@@H](O)C[C@@]21C` [Rimexolone], the Ranking score in assay [1] (setting [6]) is recorded as 362.647. Besides, in assay [1] (setting [7]), the B-score functional assay is -0.597. For the same compound, the B-score binding assay in assay [2] (setting [8]) is -0.495.

Turning to `CC(C)NCC(O)c1ccc2ccccc2c1.Cl` (stereo not drawn) [Pronethalol hydrochloride], the Ranking score in assay [1] (setting [6]) was determined as 409.31. Also, the B-score functional assay in assay [1] (setting [7]) is given as -0.999. For the same compound, in assay [2] (setting [8]), the B-score binding assay amounted to 0.008.

Compound `Cc1cn[nH]c1` [Fomepizole] showed a B-score functional assay in assay [1] (setting [3]) of 0.928. In assay [1] (setting [4]), this compound showed a Ranking score of 795.707. The B-score binding assay in assay [2] (setting [5]) is -0.028.

In assay [1] (setting [3]), `CC(=O)Nc1nnc(S(N)(=O)=O)s1` [Acetazolamide] yielded a B-score functional assay of 0.532. This compound also returned a Ranking score in assay [1] (setting [4]) of 696.956. In assay [2] (setting [5]), the B-score binding assay is -0.137.

The compound `COc1ccc2c(c1)N(C[C@H](C)CN(C)C)c1ccccc1S2.O=C(O)/C=C\C(=O)O` [Methotrimeprazine maleat salt] gave a B-score functional assay in assay [1] (setting [3]) of 1.773. The compound also yielded a Ranking score in assay [1] (setting [4]) of 734.211. Also, the B-score binding assay in assay [2] (setting [5]) is given as -0.27.

As for `NC(=O)N1c2ccccc2C=Cc2ccccc21` [Carbamazepine], the B-score functional assay in assay [1] (setting [3]) is reported as -0.062. This compound also showed a Ranking score in assay [1] (setting [4]) of 671.795. This compound displayed a B-score binding assay in assay [2] (setting [5]) of 0.183.

With `CC1CC(OC(=O)c2ccccc2O)CC(C)(C)C1` (stereo not drawn) [Homosalate], the B-score functional assay in assay [1] (setting [3]) is 0.284. Further, the Ranking score in assay [1] (setting [4]) turned out to be 811.615. This compound returned a B-score binding assay in assay [2] (setting [5]) of 0.177.

As to `CCCCC1C(=O)N(c2ccccc2)N(c2ccc(O)cc2)C1=O` (stereo not drawn) [Oxyphenbutazone], in assay [1] (setting [9]), the B-score functional assay was found to be 2.782. The Ranking score in assay [1] (setting [10]) is recorded as 1000.56. Besides, in assay [2] (setting [11]), the B-score binding assay worked out at 0.23.

On to `NC[C@@H]1O[C@H](O[C@H]2[C@@H](O)[C@H](O[C@@H]3[C@@H](O)[C@H](N)C[C@H](N)[C@H]3O[C@H]3O[C@H](CO)[C@@H](O)[C@H](O)[C@H]3N)O[C@@H]2CO)[C@H](N)[C@@H](O)[C@@H]1O` [Paromomycin sulfate], for which the B-score functional assay in assay [1] (setting [9]) turned out to be 0.247. Moreover, in assay [1] (setting [10]), the Ranking score is reported as 976.576. For the same compound, the B-score binding assay in assay [2] (setting [11]) is 1.613.

`CCN(CC)C(C)C(=O)c1ccccc1` (stereo not drawn) [Amfepramone hydrochloride] yielded a B-score functional assay in assay [1] (setting [9]) of 0.339. In assay [1] (setting [10]), the Ranking score came out at 1034.63. For the same compound, in assay [2] (setting [11]), the B-score binding assay is given as 2.906.

Consider `O=C(O)COC(=O)Cc1ccccc1Nc1c(Cl)cccc1Cl` [Aceclofenac], for which the Ranking score in assay [1] (setting [6]) came out at 377.221. For the same compound, in assay [1] (setting [7]), the B-score functional assay is reported as -0.535. Besides, in assay [2] (setting [8]), the B-score binding assay is -0.456.

`O=C(O)/C=C\C(=O)O.O=C(O)/C=C\C(=O)O.c1ccc2nc(N3CCNCC3)ccc2c1` [Quipazine dimaleate salt] gave a B-score functional assay in assay [1] (setting [9]) of 0.305. The Ranking score in assay [1] (setting [10]) was 954.17. Further, in assay [2] (setting [11]), the B-score binding assay is given as 1.213.

`CCOc1ccccc1OCC1CNCCO1` (stereo not drawn) [Viloxazine hydrochloride]: in assay [1], the B-score functional assay is listed as -1.513 and the Ranking score is on record as 214.483. Also, the B-score binding assay in assay [2] is -0.914.

Take `CN1CCN(C2=Nc3ccccc3Oc3ccc(Cl)cc32)CC1` [Loxapine succinate]: in assay [1] (setting [6]), the Ranking score turned out to be 424.073. The B-score functional assay in assay [1] (setting [7]) is given as -1.397. Also, the B-score binding assay in assay [2] (setting [8]) is listed as 0.552.

On to `CC(C)NC[C@H](O)COc1ccc(CC(N)=O)cc1` [(S)-(-)-Atenolol], for which, in assay [1] (setting [6]), the Ranking score is reported as 412.97. Besides, in assay [1] (setting [7]), the B-score functional assay is listed as -0.386. Also, in assay [2] (setting [8]), the B-score binding assay is -0.394.

`COC(=O)CCc1ccc(OCC(O)CNC(C)C)cc1` (stereo not drawn) [Esmolol hydrochloride]: in assay [1] (setting [9]), the B-score functional assay is 0.736. The Ranking score in assay [1] (setting [10]) turned out to be 1025.92. Moreover, the B-score binding assay in assay [2] (setting [11]) was 1.099.

Take `Cc1cc(C(C)(C)C)c(O)c(C)c1CC1=NCCN1` [Oxymetazoline hydrochloride]: the B-score functional assay in assay [1] (setting [9]) was found to be 0.493. Also, the Ranking score in assay [1] (setting [10]) was determined as 1060.78. The compound also came in with a B-score binding assay in assay [2] (setting [11]) of 2.755.
